Measurements: patent publication US7122555B2, “Pyrido [2,1-a] isoquinoline derivatives” (Hoffmann-la Roche Inc., priority 2003, dated 2006)
pIC50: −log10 of the molar value.

These compounds were tested against human DPP-IV (Homo sapiens, UniProt P27487) (assay: DPP-IV activity assay (fluorogenic or colorimetric substrate), IC50 determination).
human DPP-IV, sequence (P27487 31-766): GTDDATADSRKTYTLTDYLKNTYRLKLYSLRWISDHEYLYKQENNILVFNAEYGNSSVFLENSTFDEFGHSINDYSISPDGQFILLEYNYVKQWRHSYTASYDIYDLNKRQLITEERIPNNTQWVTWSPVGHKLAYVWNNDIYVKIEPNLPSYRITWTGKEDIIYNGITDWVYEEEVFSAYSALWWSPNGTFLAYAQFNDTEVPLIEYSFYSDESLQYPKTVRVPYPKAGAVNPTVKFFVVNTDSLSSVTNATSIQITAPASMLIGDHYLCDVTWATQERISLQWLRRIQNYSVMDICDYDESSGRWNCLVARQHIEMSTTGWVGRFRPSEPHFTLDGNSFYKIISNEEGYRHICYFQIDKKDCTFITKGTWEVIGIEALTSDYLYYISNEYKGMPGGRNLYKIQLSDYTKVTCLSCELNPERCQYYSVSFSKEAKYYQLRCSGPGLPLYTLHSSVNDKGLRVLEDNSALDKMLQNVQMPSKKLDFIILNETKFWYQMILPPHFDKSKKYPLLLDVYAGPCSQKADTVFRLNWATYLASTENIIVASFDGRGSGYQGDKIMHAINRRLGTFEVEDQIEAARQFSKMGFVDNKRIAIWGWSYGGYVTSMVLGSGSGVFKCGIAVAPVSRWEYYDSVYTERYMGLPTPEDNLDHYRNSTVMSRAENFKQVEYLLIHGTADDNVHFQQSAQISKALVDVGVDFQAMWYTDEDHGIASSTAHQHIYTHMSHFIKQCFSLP
Description: Activity of DPP-IV inhibitors are tested with natural human DPP-IV derived from a human plasma pool or with recombinat human DPP-IV. Human citrate plasma from different donors is pooled, filterted through a 0.2 micron membrane under sterile conditions and aliquots of 1 ml are shock frozen and stored at −120° C. until used. In the colorimetric DPP-IV assay 5 to 10 μl human plasma and in the fluorometric assay 1.0 μl of human plasma in a total assay volume of 100 μl is used as an enzyme source. […] In the calorimetric DPP-IV assay 20 ng rec.-h DPP-IV and in the fluorometric assay 2 ng rec-h DPP-IV in a total assay volume of 100 μl is used as an enzyme source.
Initial rate constants are calculated by best fit linear regression.
The absorption of pNA liberated from the colorimetric substrate is detected in a Packard SpectraCount at 405 nm continuosly every 2 minutes for 30 to 120 minutes. Initial rate constants are calculated by best fit linear regression.
DPP-IV activity assays are performed in 96 well plates at 37° C. in a total assay volume of 100 μl. The assay buffer consists of 50 mM Tris/HCl pH 7.8 containing 0.1 mg/ml BSA and 100 mM NaCl. Test compounds are solved in 100% DMSO, diluted to the desired concentration in 10% DMSO/H2O. The final DMSO concentration in the assay is 1% (v/v). At this concentration enzyme inactivation by DMSO is <5%. Compounds are with (10 minutes at 37° C.) and without preincubation with the enzyme. Enzyme reactions are started with substrate application followed by immediate mixing.
Kinetic parameters of the enzyme reaction are calculated at at least 5 different substrate concentrations and at least 5 different test compound concentrations.

| pIC50 | Structure (SMILES) |
| --- | --- |
| 7.39 | COc1cc2c(cc1OC)[C@@H]1C[C@H](N)[C@@H](C(=O)N3CCSC3)CN1CC2 (racemic) [Example 2, (RS,RS,RS)-(2-Amino-9,10-dimethoxy-1,3,4,6,7,11b-hexahydro-2H-pyrido[2,1-a]isoquinolin-3-yl)-thiazolidin-3-yl-methanone] |
| 7.48 | COc1cc2c(cc1OC)[C@@H]1C[C@H](N)[C@@H](N3CCC=CC3=O)CN1CC2 (racemic) [Example 12, (RS,RS,RS)-1-(2-Amino-9,10-dimethoxy-1,3,4,6,7,11b-hexahydro-2H-pyrido [2,1-a]isoquinolin-3-yl)-5,6-dihydro-1H-pyridin-2-one] |
| 6.88 | COc1cc2c(cc1OC)[C@@H]1C[C@H](N)[C@@H](N3CCCCS3(=O)=O)CN1CC2 [Example 16, (S,S,S)-3-(1,1-Dioxo-[1,2]thiazinan-2-yl)-9,10-dimethoxy-1,3,4,6,7,11b-hexahydro-2H-pyrido[2,1-a]isoquinolin-2-ylamine] |
